Reference: US8816097B2, “Active ingredient combinations having insecticide and acaricide properties” (Bayer CropScience AG, priority 2006, dated 2014)

Columns and labels:
[1] = test system: larvae of the mustard beetle (Phaedon cochleariae); experiment: Phaedon cochleariae larvae test (sprayed cabbage leaves); conditions: single active compound, 100 g/ha
[2] = test system: two-spotted spider mite (Tetranychus urticae); experiment: Tetranychus urticae test (sprayed dwarf bean leaves); type: in vivo; conditions: single active compound
Source text: (§1) Solvents: 78 parts by weight of acetone

[3] = test system: larvae of the army worm (Spodoptera frugiperda); experiment: Spodoptera frugiperda test (sprayed cabbage leaves); type: in vivo; conditions: single active compound, 100 g/ha
Source text: as §1

[4] = test system: green peach aphid (Myzus persicae); experiment: Myzus persicae test (sprayed cabbage leaves); type: in vivo; conditions: single active compound, 100 g/ha
Source text: as §1

SMILES	Kill level in % after 6d [1]	Kill rate in % after 2d ([2]; 0.8 g/ha)	Kill level in % after 6d [3]	Kill rate in % after 2d ([2]; 0.032 g/ha)	Kill level in % after 6d [4]	Kill rate in % after 2d ([2]; 0.16 g/ha)
CCOC(=O)OC1=C(c2cc(C)ccc2C)C(=O)N[C@]12CC[C@@H](OC)CC2 [Spirotetramat]	33%	0%	50%	–	–	–
CSC(=O)O/C(=C(/C#N)c1ccc(Cl)cc1)c1ccccc1C(F)(F)F [IKA 2002]	33%	0%	0%	0%	–	–
COCCOC(=O)C(C#N)(C(=O)c1ccccc1C(F)(F)F)c1ccc(C(C)(C)C)cc1 (stereo not drawn) [Cyflumetofen, 2-methoxyethyl alpha-cyano-alpha-[4-(1,1-dimethylethyl)phenyl]-beta-oxo-2-(trifluoromethyl)benzenepropanoate]	0%	20%	0%	–	0%	–
CCC(C)(C)C(=O)OC1=C(c2ccc(Cl)cc2Cl)C(=O)OC12CCCCC2 [Spirodiclofen]	–	10%	–	–	–	–
Cc1cc(C)c(C2=C(OC(=O)CC(C)(C)C)C3(CCCC3)OC2=O)c(C)c1 [Spiromesifen]	–	10%	–	–	70%	0%
Cc1nn(C)c(/C(OC(=O)C(C)(C)C)=C(\C#N)c2ccc(C(C)(C)C)cc2)c1C [Cyenopyrafen, (1E)-2-cyano-2-[4-(1,1-dimethylethyl)phenyl]-1-(1,3,4-trimethyl-1H-pyrazol-5-yl)ethenyl 2,2-dimethylpropanoate]	50%	80%	–	–	0%	–
